Literature values, collected in patent US20110303570A1, “PACKAGE OF SOLID PHARMACEUTICAL PREPARATION” (Astellas Pharma Inc., priority 2009, published 2011).

Conditions: administered either orally or directly into the colon of a mammal

**Q.** With CC(OC(=O)NCC1(CC(=O)O)CCCCC1)OC(=O)C(C)C (stereo not drawn) [1-{[(α-isobutanoyloxyethoxy)carbonyl]aminomethyl}-1-cyclohexane acetic acid] as the compound, how does the Bioavailability as gabapentin read?
**A.** high
